Results: paper PMC7504721, “Targeting the Initiator Protease of the Classical Pathway of Complement Using Fragment-Based Drug Discovery” (Molecules, 2020)

Biological target: T1, C1r-CCP2-SP (Homo sapiens, UniProt P00736)
T1 sequence (P00736 374-463 limits assumed): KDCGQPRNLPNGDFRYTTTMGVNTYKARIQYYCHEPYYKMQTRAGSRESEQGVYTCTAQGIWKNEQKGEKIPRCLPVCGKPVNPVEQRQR
T1 sequence (P00736 464-705 limits assumed): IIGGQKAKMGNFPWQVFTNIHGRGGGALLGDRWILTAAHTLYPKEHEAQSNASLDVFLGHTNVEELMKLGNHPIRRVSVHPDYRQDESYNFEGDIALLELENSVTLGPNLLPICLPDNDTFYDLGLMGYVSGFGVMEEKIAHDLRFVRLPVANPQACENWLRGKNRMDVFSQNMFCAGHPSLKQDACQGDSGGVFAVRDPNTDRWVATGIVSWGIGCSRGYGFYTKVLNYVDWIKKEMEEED
Assay: SPR domain mapping, C1r-CCP2-SP surface
Format: binding
Details: duplicate
Source text: Figure 5 Selectivity and mechanistic analysis of CMP-1611 and CMP-1696. (A) Chemical structure of CMP-1611. (B) Chemical structure of CMP-1696. (C) Dose-dependent inhibition by CMP-1611 and CMP-1696 in a classical pathway-specific ELISA. Data were fit with GraphPad Prism using non-linear regression with a log(inhibitor) vs. response model. […] The CMP-778 inhibitory response could not be fit to a dose-response inhibition model. (D) Complement pathway selectivity of CMP-1611 and CMP-1696. Compounds were assessed for their ability to inhibit activation of complement via the lectin and alternative pathways using single doses of 500 μM compound in triplicate. To ensure only lectin pathway activation, 2% (v/v) C1q-depleted serum (CompTech) was used and mannan was used as the activator. To match serum sources and amounts for this assay, the classical pathway assays were repeated here using serum from CompTech at 2% (v/v) final concentration. Alternative pathway activation assays were performed using 20% (v/v) serum (CompTech), alternative pathway buffers, and C3b detection (see Methods and Materials for details). […] (E) C1r, C1r-CUB1, and C1r-CCP2-SP, were immobilized on an SPR sensor chip and binding responses for 500 μM CMP-1611 and CMP-1696 or 10 μM Futhan were each injected in duplicate over all surfaces. Binding responses were corrected for the molecular weight of each analyte and the immobilization level and molecular weight of each surface ligand. Measures of statistical significance in (D) were obtained by comparison of vehicle control using an unpaired t-test (* p < 0.05). To assess selectivity of CMP-1611 and CMP-1696, we performed pathway-specific ELISA-based inhibition assays. […] However, CMP-1696, but not CMP-1611, blocked lectin pathway activation at a similar level as it did the classical pathway (Figure 5D). To further investigate the divergent selectivity profiles of CMP-1611 and CMP-1696, we first sought to clarify the binding site on C1r for each compound. […] We then injected each compound simultaneously over the three surfaces at 500 μM and measured binding responses. […]

| Compound | relative SPR binding response, C1r-CCP2-SP (500 µM compound) | relative SPR binding response, C1r-CCP2-SP (10 µM Futhan) |
| --- | --- | --- |
| CN(C)c1cc(N2CCCC(N)C2)ncn1 (stereo not drawn) [CMP-1611] | bound weakly | – |
| N=C(N)c1ccc2cc(OC(=O)c3ccc(N=C(N)N)cc3)ccc2c1 [Futhan, reference compound] | – | bound C1r and C1r-CCP2-SP similarly |
| COCc1nc(-c2ccc(OC3CNC3)cc2)no1 [CMP-1696] | high binding | – |
